Source: PMC7419507, “In vitro Cas9-assisted editing of modular polyketide synthase genes to produce desired natural product derivatives” (Nature Communications, 2020)
“And” between values parts separate entries of the source, which are not always exact repeats. Identical values can stand only once.

Assays:
Type in all cases: cell-based
[1] = Cytotoxicity assay (CellTiter-Glo, 72 h), MESO-1; conditions: human, MESO-1 malignant pleural mesothelioma cells, conc 50 uM; raw replicate data; read-out: MESO1 viability (%)
Method in brief: (§1)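 Following 4 h attachment at 1000 cells/well, the three lines received serially halved compound doses (DMSO 0.5%) for 72 h at 37 °C under 5% CO2, with cell viability then determined by CellTiter-Glo.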

[2] = test system: malignant pleural mesothelioma MESO-1 cells; assay: Cytotoxicity assay (CellTiter-Glo, 72 h), MESO-1; conditions: raw replicate data
Method in brief: as §1

[3] = Cytotoxicity assay (CellTiter-Glo, 72 h), Jurkat; conditions: human, Jurkat cells (T lymphoma), raw data (replicates)
Method in brief: as §1

T lymphoma Jurkat cells = assay: Cytotoxicity assay (CellTiter-Glo, 72 h), Jurkat; conditions: raw data (replicates)
Method in brief: as §1

## CO[C@H]1C[C@@H]2CC[C@@H](C)[C@@](O)(O2)C(=O)C(=O)N2CCCC[C@H]2C(=O)O[C@H]([C@H](C)C[C@@H]2CC[C@@H](O)[C@H](OC)C2)CC(=O)[C@H](C)/C=C(\C)[C@@H](O)CC[C@H](C)/C=C/C=C/C=C/1C [Compound 7]
[1]
  viability at 72 h, 50 uM: 23.2%
[2]; conc 9.53674e-5 uM
  MESO1 viability (%): 102.2% and 99.0%
[2]; conc 0.000190735 uM
  MESO1 viability (%): 96.1%
[2]; conc 0.00038147 uM
  MESO1 viability (%): 98.4% and 104.2%
[2]; conc 0.000762939 uM
  MESO1 viability (%): 97.5%
[2]; conc 0.00152588 uM
  MESO1 viability (%): 94.3% and 98.4%
[2]; conc 0.00305176 uM
  MESO1 viability (%): 93.1% and 92.8%
[2]; conc 0.00610352 uM
  MESO1 viability (%): 98.2%
[2]; conc 0.012207 uM
  MESO1 viability (%): 92.2% and 89.5%
[2]; conc 0.0244141 uM
  MESO1 viability (%): 87.8%
[2]; conc 0.0488281 uM
  MESO1 viability (%): 86.4% and 84.2%
[2]; conc 0.0976562 uM
  MESO1 viability (%): 76.6% and 76.8%
[2]; conc 0.195312 uM
  MESO1 viability (%): 70.4% and 63.5%
[2]; conc 0.390625 uM
  MESO1 viability (%): 69.2% and 71.3%
[2]; conc 0.78125 uM
  MESO1 viability (%): 64.7% and 62.9%
[2]; conc 1.5625 uM
  MESO1 viability (%): 70.0% and 72.7%
[2]; conc 3.125 uM
  MESO1 viability (%): 62.1% and 64.7%
[2]; conc 6.25 uM
  MESO1 viability (%): 67.5% and 72.2%
[2]; conc 12.5 uM
  MESO1 viability (%): 60.9% and 63.2%
[2]; conc 25 uM
  MESO1 viability (%): 63.3% and 65.2%
[2]; conc 50 uM
  MESO1 viability (%): 30.2% and 20.1%
[3]; conc 9.53674e-5 uM
  viability at 72 h, 9.53674e-05 uM: 100%
[3]; conc 0.000190735 uM
  viability at 72 h, 0.000190735 uM: 95.1%
[3]; conc 0.00038147 uM
  viability at 72 h, 0.00038147 uM: 102%
[3]; conc 0.000762939 uM
  viability at 72 h, 0.000762939 uM: 100%
[3]; conc 0.00152588 uM
  viability at 72 h, 0.00152588 uM: 105%
[3]; conc 0.00305176 uM
  viability at 72 h, 0.00305176 uM: 93.5%
[3]; conc 0.00610352 uM
  viability at 72 h, 0.00610352 uM: 96.7%
[3]; conc 0.012207 uM
  viability at 72 h, 0.012207 uM: 90.6%
[3]; conc 0.0244141 uM
  viability at 72 h, 0.0244141 uM: 98.9%
[3]; conc 0.0488281 uM
  viability at 72 h, 0.0488281 uM: 87%
[3]; conc 0.0976562 uM
  viability at 72 h, 0.0976562 uM: 67%
[3]; conc 0.195312 uM
  viability at 72 h, 0.195312 uM: 46.3%
[3]; conc 0.390625 uM
  viability at 72 h, 0.390625 uM: 36%
[3]; conc 0.78125 uM
  viability at 72 h, 0.78125 uM: 31%
[3]; conc 1.5625 uM
  viability at 72 h, 1.5625 uM: 26.7%
[3]; conc 3.125 uM
  viability at 72 h, 3.125 uM: 24.2%
[3]; conc 6.25 uM
  viability at 72 h, 6.25 uM: 24.1%
[3]; conc 12.5 uM
  viability at 72 h, 12.5 uM: 10.9%
[3]; conc 25 uM
  viability at 72 h, 25 uM: 0.741%
[3]; conc 50 uM
  viability at 72 h, 50 uM: 0.258%
T lymphoma Jurkat cells; conc 9.53674e-5 uM
  Jurkat viability (%): 101.4% and 96.8%
T lymphoma Jurkat cells; conc 0.000190735 uM
  Jurkat viability (%): 92.3% and 102.8%
T lymphoma Jurkat cells; conc 0.00038147 uM
  Jurkat viability (%): 98.3% and 99.4%
T lymphoma Jurkat cells; conc 0.000762939 uM
  Jurkat viability (%): 96.8% and 109.7%
T lymphoma Jurkat cells; conc 0.00152588 uM
  Jurkat viability (%): 108.1% and 104.4%
T lymphoma Jurkat cells; conc 0.00305176 uM
  Jurkat viability (%): 100.3% and 100.8%
T lymphoma Jurkat cells; conc 0.00610352 uM
  Jurkat viability (%): 94.5% and 97.8%
T lymphoma Jurkat cells; conc 0.012207 uM
  Jurkat viability (%): 91.0% and 94.3%
T lymphoma Jurkat cells; conc 0.0244141 uM
  Jurkat viability (%): 98.4% and 90.4%
T lymphoma Jurkat cells; conc 0.0488281 uM
  Jurkat viability (%): 79.8% and 78.8%
T lymphoma Jurkat cells; conc 0.0976562 uM
  Jurkat viability (%): 64.4% and 67.9%
T lymphoma Jurkat cells; conc 0.195312 uM
  Jurkat viability (%): 41.4% and 44.6%
T lymphoma Jurkat cells; conc 0.390625 uM
  Jurkat viability (%): 37.3% and 37.7%
T lymphoma Jurkat cells; conc 0.78125 uM
  Jurkat viability (%): 29.3% and 29.8%
T lymphoma Jurkat cells; conc 1.5625 uM
  Jurkat viability (%): 28.3%
T lymphoma Jurkat cells; conc 3.125 uM
  Jurkat viability (%): 25.8% and 24.4%
T lymphoma Jurkat cells; conc 6.25 uM
  Jurkat viability (%): 23.0% and 23.1%
T lymphoma Jurkat cells; conc 12.5 uM
  Jurkat viability (%): 10.5% and 12.1%
T lymphoma Jurkat cells; conc 25 uM
  Jurkat viability (%): 0.565% and 1.0%
T lymphoma Jurkat cells; conc 50 uM
  Jurkat viability (%): 0.186% and 0.257%
